Measured values: US10906873B2, “Substituted cyclic amides as herbicides” (FMC Corporation, priority 2015, dated 2021)

Experiments:
Format in all cases: in vivo
[1] = test system: barnyardgrass (Echinochloa crus-galli); experiment: Test A postemergence, barnyardgrass; details: 0 to 100 scale
How it was run: (§1)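 Seeds sown in loam–sand blend received a directed soil spray preemergence; postemergence plants (2–10 cm, one- to two-leaf stage) were sprayed with test chemicals in non-phytotoxic solvent with surfactant. After about 10 d in greenhouse, injury was scored visually versus untreated controls, 0 (no effect) to 100 (complete control).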

[2] = test system: foxtail, giant (giant foxtail, Setaria faberii); experiment: Test A postemergence, foxtail, giant; details: 0 to 100 scale
How it was run: as §1

[3] = test system: sedge, umbrella (small-flower umbrella sedge, Cyperus difformis); experiment: Test B flooded paddy test, sedge, umbrella; details: Flood, scale of 0 to 100 where 0 is no effect and 100 is complete control, 13 to 15 d
How it was run: (§2)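 Plants at the 2-leaf stage were flooded to 3 cm above soil, and test compounds were applied directly into the paddy water, which was held at that depth throughout. After 13 to 15 d in a greenhouse, injury was rated visually against untreated controls on a 0–100 scale (0 no effect, 100 complete control).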

[4] = test system: ducksalad (Heteranthera limosa); experiment: Test B flooded paddy test, ducksalad; details: Flood, scale of 0 to 100 where 0 is no effect and 100 is complete control, 13 to 15 d
How it was run: as §2

[5] = test system: ragweed (common ragweed, Ambrosia elatior); experiment: Test A preemergence, ragweed; details: 0 to 100 scale
How it was run: as §1

[6] = test system: galium (catchweed bedstraw, Galium aparine); experiment: Test A postemergence, galium; details: 0 to 100 scale
How it was run: as §1

[7] = test system: pigweed (Amaranthus retroflexus); experiment: Test A postemergence, pigweed; details: 0 to 100 scale
How it was run: as §1

kochia (Kochia scoparia) [8] = experiment: Test A postemergence, kochia; details: 0 to 100 scale
How it was run: as §1

[9] = test system: blackgrass (Alopecurus myosuroides); experiment: Test A postemergence, blackgrass; details: 0 to 100 scale
How it was run: as §1

kochia (Kochia scoparia) [10] = experiment: Test A preemergence, kochia; details: 0 to 100 scale
How it was run: as §1

[11] = test system: ragweed (common ragweed, Ambrosia elatior); experiment: Test A postemergence, ragweed; details: 0 to 100 scale
How it was run: as §1

[12] = test system: pigweed (Amaranthus retroflexus); experiment: Test A preemergence, pigweed; details: 0 to 100 scale
How it was run: as §1

[13] = test system: barnyardgrass (Echinochloa crus-galli); experiment: Test B flooded paddy test, barnyardgrass; details: Flood, scale of 0 to 100 where 0 is no effect and 100 is complete control, 13 to 15 d
How it was run: as §2

[14] = test system: ryegrass, It. (Italian ryegrass, Lolium multiflorum); experiment: Test A postemergence, ryegrass, It.; details: 0 to 100 scale
How it was run: as §1

[15] = test system: foxtail, giant (giant foxtail, Setaria faberii); experiment: Test A preemergence, foxtail, giant; details: 0 to 100 scale
How it was run: as §1

[16] = test system: wheat (Triticum aestivum); experiment: Test A postemergence, wheat; details: 0 to 100 scale
How it was run: as §1

[17] = test system: barnyardgrass (Echinochloa crus-galli); experiment: Test A preemergence, barnyardgrass; details: 0 to 100 scale
How it was run: as §1

rice (Oryza sativa) = experiment: Test B flooded paddy test, rice; details: Flood, scale of 0 to 100 where 0 is no effect and 100 is complete control, 13 to 15 d
How it was run: as §2

corn (Zea mays) = experiment: Test A postemergence, corn; details: 0 to 100 scale
How it was run: as §1

[18] = test system: ryegrass, It. (Italian ryegrass, Lolium multiflorum); experiment: Test A preemergence, ryegrass, It.; details: 0 to 100 scale
How it was run: as §1

| SMILES | Plant response rating, Barnyardgrass ([1]; 125 g ai/ha) | Plant response rating, Barnyardgrass ([1]; 500 g ai/ha) | Plant response rating, Foxtail, Giant ([2]; 125 g ai/ha) | Plant response rating, Foxtail, Giant ([2]; 500 g ai/ha) | Plant response rating, Ragweed ([5]; 125 g ai/ha) | Plant response rating, Ragweed ([5]; 500 g ai/ha) | Plant response rating, Galium ([6]; 125 g ai/ha) | Plant response rating, Galium ([6]; 500 g ai/ha) | Plant response rating, Pigweed ([7]; 125 g ai/ha) | Plant response rating, Pigweed ([7]; 500 g ai/ha) | Plant response rating, Kochia (kochia (Kochia scoparia) [8]; 125 g ai/ha) | Plant response rating, Kochia (kochia (Kochia scoparia) [8]; 500 g ai/ha) | Plant response rating, Blackgrass ([9]; 125 g ai/ha) | Plant response rating, Blackgrass ([9]; 500 g ai/ha) | Plant response rating, Kochia (kochia (Kochia scoparia) [10]; 125 g ai/ha) | Plant response rating, Kochia (kochia (Kochia scoparia) [10]; 500 g ai/ha) | Plant response rating, Ragweed ([11]; 125 g ai/ha) | Plant response rating, Ragweed ([11]; 500 g ai/ha) | Plant response rating, Pigweed ([12]; 125 g ai/ha) | Plant response rating, Pigweed ([12]; 500 g ai/ha) | also measured |
| --- | --- | --- | --- | --- | --- | --- | --- | --- | --- | --- | --- | --- | --- | --- | --- | --- | --- | --- | --- | --- | --- |
| O=C1NCC(C#Cc2ccc(F)cc2)C1C(=O)Nc1ccc(F)c(F)c1F (stereo not drawn) [Compound 17] | 20 | 90 | 0 | 50 | 0 | 0 | 0 | 0 | 0 | 0 | 0 | 0 | 0 | 0 | 0 | 0 | 0 | 0 | 0 | 20 | Plant response rating, Sedge, Umbrella ([3]; 250 g ai/ha): 0; Plant response rating, Ducksalad ([4]; 250 g ai/ha): 70; Plant response rating, Barnyardgrass ([13]; 250 g ai/ha): 0; Plant response rating, Ryegrass, It. ([14]; 125 g ai/ha): 0; Plant response rating, Ryegrass, It. ([14]; 500 g ai/ha): 0; Plant response rating, Foxtail, Giant ([15]; 125 g ai/ha): 30; Plant response rating, Foxtail, Giant ([15]; 500 g ai/ha): 90; Plant response rating, Wheat ([16]; 125 g ai/ha): 0; Plant response rating, Wheat ([16]; 500 g ai/ha): 0; Plant response rating, Barnyardgrass ([17]; 125 g ai/ha): 20; Plant response rating, Barnyardgrass ([17]; 500 g ai/ha): 50; Plant response rating, Rice (rice (Oryza sativa); 250 g ai/ha): 0; Plant response rating, Corn (corn (Zea mays); 125 g ai/ha): 0; Plant response rating, Corn (corn (Zea mays); 500 g ai/ha): 0; Plant response rating, Ryegrass, It. ([18]; 125 g ai/ha): 0; Plant response rating, Ryegrass, It. ([18]; 500 g ai/ha): 0 |
| O=C1NCC(C#Cc2cccc(Cl)c2)C1C(=O)Nc1ccc(F)c(F)c1F (stereo not drawn) [Compound 26] | 0 | 60 | 0 | 40 | 0 | 0 | 0 | 0 | 0 | 0 | 0 | 0 | 0 | 0 | 0 | 0 | 0 | 0 | 0 | 40 | Plant response rating, Sedge, Umbrella ([3]; 250 g ai/ha): 0; Plant response rating, Ducksalad ([4]; 250 g ai/ha): 75; Plant response rating, Barnyardgrass ([13]; 250 g ai/ha): 0; Plant response rating, Ryegrass, It. ([14]; 125 g ai/ha): 0; Plant response rating, Ryegrass, It. ([14]; 500 g ai/ha): 0; Plant response rating, Foxtail, Giant ([15]; 125 g ai/ha): 0; Plant response rating, Foxtail, Giant ([15]; 500 g ai/ha): 70; Plant response rating, Wheat ([16]; 125 g ai/ha): 0; Plant response rating, Wheat ([16]; 500 g ai/ha): 0; Plant response rating, Barnyardgrass ([17]; 125 g ai/ha): 0; Plant response rating, Barnyardgrass ([17]; 500 g ai/ha): 70; Plant response rating, Rice (rice (Oryza sativa); 250 g ai/ha): 0; Plant response rating, Corn (corn (Zea mays); 125 g ai/ha): 0; Plant response rating, Corn (corn (Zea mays); 500 g ai/ha): 0; Plant response rating, Ryegrass, It. ([18]; 125 g ai/ha): 0; Plant response rating, Ryegrass, It. ([18]; 500 g ai/ha): 0 |
| O=C1NCC(C#Cc2ccc(F)cc2)C1C(=O)Nc1ccccc1F (stereo not drawn) [Compound 19] | 0 | 40 | 0 | 20 | 0 | 0 | 0 | 0 | 0 | 0 | 0 | 0 | 0 | 0 | 0 | 0 | 0 | 0 | 0 | 0 | Plant response rating, Sedge, Umbrella ([3]; 250 g ai/ha): 0; Plant response rating, Ducksalad ([4]; 250 g ai/ha): 0; Plant response rating, Barnyardgrass ([13]; 250 g ai/ha): 0; Plant response rating, Ryegrass, It. ([14]; 125 g ai/ha): 0; Plant response rating, Ryegrass, It. ([14]; 500 g ai/ha): 0; Plant response rating, Foxtail, Giant ([15]; 125 g ai/ha): 0; Plant response rating, Foxtail, Giant ([15]; 500 g ai/ha): 20; Plant response rating, Wheat ([16]; 125 g ai/ha): 0; Plant response rating, Wheat ([16]; 500 g ai/ha): 0; Plant response rating, Barnyardgrass ([17]; 125 g ai/ha): 0; Plant response rating, Barnyardgrass ([17]; 500 g ai/ha): 50; Plant response rating, Rice (rice (Oryza sativa); 250 g ai/ha): 0; Plant response rating, Corn (corn (Zea mays); 125 g ai/ha): 0; Plant response rating, Corn (corn (Zea mays); 500 g ai/ha): 0; Plant response rating, Ryegrass, It. ([18]; 125 g ai/ha): 0; Plant response rating, Ryegrass, It. ([18]; 500 g ai/ha): 0 |
| O=C1NCC(C#Cc2cccc(Cl)c2)C1C(=O)Nc1ccccc1F (stereo not drawn) [Compound 25, 4-[2-(3-chlorophenyl)ethynyl]N-(2-fluorophenyl)-2-oxo-3-pyrrolidinecarboxamide] | 40 | 70 | 30 | 80 | 0 | 0 | 0 | 60 | 0 | 20 | 0 | 0 | 0 | 0 | 0 | 60 | 0 | 0 | 0 | 50 | Plant response rating, Sedge, Umbrella ([3]; 250 g ai/ha): 0; Plant response rating, Ducksalad ([4]; 250 g ai/ha): 85; Plant response rating, Barnyardgrass ([13]; 250 g ai/ha): 0; Plant response rating, Ryegrass, It. ([14]; 125 g ai/ha): 0; Plant response rating, Ryegrass, It. ([14]; 500 g ai/ha): 0; Plant response rating, Foxtail, Giant ([15]; 125 g ai/ha): 40; Plant response rating, Foxtail, Giant ([15]; 500 g ai/ha): 90; Plant response rating, Wheat ([16]; 125 g ai/ha): 0; Plant response rating, Wheat ([16]; 500 g ai/ha): 0; Plant response rating, Barnyardgrass ([17]; 125 g ai/ha): 60; Plant response rating, Barnyardgrass ([17]; 500 g ai/ha): 90; Plant response rating, Rice (rice (Oryza sativa); 250 g ai/ha): 20; Plant response rating, Corn (corn (Zea mays); 125 g ai/ha): 0; Plant response rating, Corn (corn (Zea mays); 500 g ai/ha): 0; Plant response rating, Ryegrass, It. ([18]; 125 g ai/ha): 0; Plant response rating, Ryegrass, It. ([18]; 500 g ai/ha): 0 |
| O=C1NCC(Cc2ccccc2C(F)(F)F)C1C(=O)Nc1ccccc1C(F)(F)F (stereo not drawn) [Compound 5] | 0 | 0 | 0 | 0 | 0 | 0 | 0 | 0 | 0 | 0 | 0 | 0 | 0 | 0 | 0 | 0 | 0 | 0 | 0 | 0 | Plant response rating, Sedge, Umbrella ([3]; 500 g ai/ha): 0; Plant response rating, Ducksalad ([4]; 500 g ai/ha): 0; Plant response rating, Barnyardgrass ([13]; 500 g ai/ha): 0; Plant response rating, Ryegrass, It. ([14]; 125 g ai/ha): 0; Plant response rating, Ryegrass, It. ([14]; 500 g ai/ha): 0; Plant response rating, Foxtail, Giant ([15]; 125 g ai/ha): 0; Plant response rating, Foxtail, Giant ([15]; 500 g ai/ha): 0; Plant response rating, Wheat ([16]; 125 g ai/ha): 0; Plant response rating, Wheat ([16]; 500 g ai/ha): 0; Plant response rating, Barnyardgrass ([17]; 125 g ai/ha): 0; Plant response rating, Barnyardgrass ([17]; 500 g ai/ha): 0; Plant response rating, Rice (rice (Oryza sativa); 500 g ai/ha): 0; Plant response rating, Corn (corn (Zea mays); 125 g ai/ha): 0; Plant response rating, Corn (corn (Zea mays); 500 g ai/ha): 0; Plant response rating, Ryegrass, It. ([18]; 125 g ai/ha): 0; Plant response rating, Ryegrass, It. ([18]; 500 g ai/ha): 0 |
